Like-named read-outs stand apart in the source and are kept apart here.
Tests used:
Format in all cases: cell-based, human
MV4;11 cells = assay: Cell proliferation experiment (Alamar blue, 72 h), MV4;11
In short: (§1)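 Viability measured by Alamar blue fluorescence after 72 h culture with compound (5-fold serial dilutions, two wells each) added to log-phase cells. IC50 derived from a Min/Max/Slope logistic equation.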

Daudi cells = assay: Cell proliferation experiment, Daudi; settings: read-out: Inhibitory activity IC50 on Daudi
In short: as §1

MDA-MB-231 cells = assay: Cell proliferation experiment, MDA-MB-231
In short: as §1

PC-3 = assay: Cell proliferation experiment, PC-3
In short: as §1

NCIH82 cells = assay: Cell proliferation experiment, NCI-H82; settings: Homo sapiens, NCI-H82, NCI-H82 cells; read-out: Inhibitory activity IC50 on NCI-H82
In short: as §1

[1] = Homo sapiens, MV4-11, MV4;11 cells, read-out: Inhibitory activity IC50 on MV4;11
[2] = Homo sapiens, Daudi, Daudi cells
[3] = Homo sapiens, MDA-MB-231, MDA-MB-231 cells, read-out: Inhibitory activity IC50 on MDA-MB-231
[4] = Homo sapiens, PC-3, PC-3 cells, read-out: Inhibitory activity IC50 on PC-3
[5] = MDA-MB-231 cells, read-out: Inhibitory activity IC50 on MDA-MB-231

IC50 (MV4;11 cells; [1])	IC50 (Daudi cells; [2])	IC50 (MDA-MB-231 cells; [3])	IC50 (PC-3; [4])	IC50 (NCIH82 cells)	SMILES	also measured
< 0.01 µM	0.01 to 0.1 µM	0.01 to 0.1 µM	0.01 to 0.1 µM	–	CC[C@@H]1C(=O)N(C)c2cnc(Nc3ccc(C(=O)N[C@H]4CC[C@@H](NCCOCCC#Cc5cccc6c5CN(C5CCC(=O)NC5=O)C6=O)CC4)cc3OC)nc2N1C1CCCC1 (some centres unmarked) [UB-180937]	–
0.01 to 0.1 µM	0.1 to 1 µM	> 1 µM	> 1 µM	0.1 to 1 µM	CCNC(=O)C#Cc1ccc2c(c1)NC(=O)/C2=C(\Nc1ccc(CNCCOCCOCCOCCOCCC(=O)Nc2ccc3c(c2)CN(C2CCC(=O)NC2=O)C3=O)cc1)c1ccccc1 (centres unmarked) [UB-180957]	–
< 0.01 µM	< 0.01 µM	< 0.01 µM	< 0.01 µM	–	CC[C@@H]1C(=O)N(C)c2cnc(Nc3ccc(-c4cn(C5CCC(NCCOCCC#Cc6cccc7c6CN(C6CCC(=O)NC6=O)C7=O)CC5)nn4)cc3OC)nc2N1C1CCCC1 (some centres unmarked) [UB-180961]	–
< 0.01 µM	0.01 to 0.1 µM	> 1 µM	> 1 µM	0.1 to 1 µM	CNC(=O)c1ccccc1Nc1nc(Nc2ccc(N3CCN(C(=O)NCCCCOCCCCNCC(=O)Nc4cccc5c4CN(C4CCC(=O)NC4=O)C5=O)CC3)cc2)ncc1Cl (centres unmarked) [UB-181048]	–
0.01 to 0.1 µM	0.01 to 0.1 µM	> 1 µM	0.1 to 1 µM	0.01 to 0.1 µM	CNC(=O)c1ccccc1Nc1nc(Nc2ccc(N3CCN(C(=O)NCCCCOCCCCNCC(=O)Nc4ccc5c(c4)CN(C4CCC(=O)NC4=O)C5=O)CC3)cc2)ncc1Cl (centres unmarked) [UB-181049]	–
< 0.01 µM	0.01 to 0.1 µM	> 1 µM	> 1 µM	0.1 to 1 µM	CNC(=O)c1ccccc1Nc1nc(Nc2ccc(N3CCN(C(=O)NCCNCCC(=O)Nc4ccc5c(c4)CN(C4CCC(=O)NC4=O)C5=O)CC3)cc2)ncc1Cl (centres unmarked) [UB-181054]	–
< 0.01 µM	0.01 to 0.1 µM	> 1 µM	> 1 µM	0.1 to 1 µM	CNC(=O)c1ccccc1Nc1nc(Nc2ccc(N3CCN(C(=O)NCCCOCC(O)COCC#Cc4ccc5c(c4)CN(C4CCC(=O)NC4=O)C5=O)CC3)cc2)ncc1Cl (centres unmarked) [UB-181076]	–
< 0.01 µM	–	–	0.01 to 0.1 µM	–	CC[C@@H]1C(=O)N(C)c2cnc(Nc3ccc(-c4cn([C@H]5CC[C@@H](NCCOCCC#Cc6cccc7c6CN(C6CCC(=O)NC6=O)C7=O)CC5)nn4)cc3)nc2N1C1CCCC1 (some centres unmarked) [UB-181099]	IC50 (Daudi cells; Daudi cells): 0.01 to 0.1 µM; IC50 (MDA-MB-231 cells; [5]): 0.01 to 0.1 µM
< 0.01 µM	0.01 to 0.1 µM	0.01 to 0.1 µM	0.01 to 0.1 µM	–	CC[C@@H]1C(=O)N(C)c2cnc(Nc3ccc(-c4cn([C@H]5CC[C@H](NCCOCCC#Cc6cccc7c6CN(C6CCC(=O)NC6=O)C7=O)CC5)nn4)cc3OC)nc2N1C1CCCC1 (some centres unmarked) [UB-181108]	–
–	–	–	–	–	CC[C@@H]1C(=O)N(C)c2cnc(Nc3ccc(C(=O)N[C@H]4CC[C@H](NCCOCCC#Cc5cccc6c5CN(C5CCC(=O)NC5=O)C6=O)CC4)cc3OC)nc2N1C1CCCC1 (some centres unmarked) [UB-181113]	IC50 (MV4;11 cells; Homo sapiens, MV4-11, read-out: Inhibitory activity IC50 on MV4;11): < 0.01 µM; IC50 (Daudi cells; Homo sapiens, Daudi): 0.01 to 0.1 µM; IC50 (MDA-MB-231 cells; Homo sapiens, MDA-MB-231, read-out: Inhibitory activity IC50 on MDA-MB-231): 0.01 to 0.1 µM; IC50 (PC-3; Homo sapiens, PC-3, read-out: Inhibitory activity IC50 on PC-3): 0.01 to 0.1 µM
< 0.01 µM	0.1 to 1 µM	0.01 to 0.1 µM	0.01 to 0.1 µM	–	CC[C@@H]1C(=O)N(C)c2cnc(Nc3ccc(-c4cn([C@H]5CC[C@H](NCCOCCC#Cc6cccc7c6CN(C6CCC(=O)NC6=O)C7=O)CC5)nn4)cc3)nc2N1C1CCCC1 (some centres unmarked) [UB-181118]	–
0.01 to 0.1 µM	–	> 1 µM	> 1 µM	> 1 µM	N#Cc1ccccc1Nc1nc(Nc2ccc(C3CCN(C(=O)N[C@H]4CC[C@@H](NCCOCCC#Cc5cccc6c5CN(C5CCC(=O)NC5=O)C6=O)CC4)CC3)cc2)ncc1Cl (some centres unmarked) [UB-181134]	–
0.01 to 0.1 µM	–	> 1 µM	> 1 µM	> 1 µM	N#Cc1ccccc1Nc1nc(Nc2ccc(C3CCN(C(=O)N[C@H]4CC[C@@H](NCCOCCC#Cc5ccc6c(c5)CN(C5CCC(=O)NC5=O)C6=O)CC4)CC3)cc2)ncc1Cl (some centres unmarked) [UB-181135]	–
< 0.01 µM	–	0.1 to 1 µM	0.1 to 1 µM	0.1 to 1 µM	CS(=O)(=O)c1ccccc1Nc1nc(Nc2ccc(C3CCN(C(=O)N[C@H]4CC[C@H](NCCOCCC#Cc5cccc6c5CN(C5CCC(=O)NC5=O)C6=O)CC4)CC3)cc2)ncc1Cl (some centres unmarked) [UB-181139]	–
< 0.01 µM	–	0.1 to 1 µM	0.1 to 1 µM	0.1 to 1 µM	CS(=O)(=O)c1ccccc1Nc1nc(Nc2ccc(C3CCN(C(=O)N[C@H]4CC[C@@H](NCCOCCC#Cc5ccc6c(c5)CN(C5CCC(=O)NC5=O)C6=O)CC4)CC3)cc2)ncc1Cl (some centres unmarked) [UB-181140]	–
0.01 to 0.1 µM	0.1 to 1 µM	0.1 to 1 µM	0.1 to 1 µM	–	CC[C@@H]1C(=O)N(C)c2cnc(Nc3ccc(C(=O)NC4CCN(CCOCCN(C)CC(=O)Nc5cccc6c5CN(C5CCC(=O)NC5=O)C6=O)CC4)cc3)nc2N1C1CCCC1 (some centres unmarked) [UB-181143]	–
< 0.01 µM	0.01 to 0.1 µM	0.01 to 0.1 µM	0.01 to 0.1 µM	–	CC[C@@H]1C(=O)N(C)c2cnc(Nc3ccc(C(=O)N[C@H]4CC[C@H](NCCOCCC#Cc5cccc6c5CN(C5CCC(=O)NC5=O)C6=O)CC4)cc3)nc2N1C1CCCC1 (some centres unmarked) [UB-181144]	–
< 0.01 µM	< 0.01 µM	< 0.01 µM	< 0.01 µM	–	CC[C@@H]1C(=O)N(C)c2cnc(Nc3ccc(-c4cn([C@H]5CC[C@@H](NCCOCCC#Cc6cccc7c6CN(C6CCC(=O)NC6=O)C7=O)CC5)nn4)cc3OC)nc2N1Cc1ccc(Cl)s1 (some centres unmarked) [UB-181145]	–
< 0.01 µM	–	> 1 µM	> 1 µM	> 1 µM	CC(=O)c1ccccc1Nc1nc(Nc2ccc(C3CCN(C(=O)N[C@H]4CC[C@H](NCCOCCC#Cc5cccc6c5CN(C5CCC(=O)NC5=O)C6=O)CC4)CC3)cc2)ncc1Cl (some centres unmarked) [UB-181146]	–
< 0.01 µM	–	0.1 to 1 µM	0.1 to 1 µM	0.1 to 1 µM	NC(=O)c1ccccc1Nc1nc(Nc2ccc(C3CCN(C(=O)N[C@H]4CC[C@H](NCCOCCC#Cc5cccc6c5CN(C5CCC(=O)NC5=O)C6=O)CC4)CC3)cc2)ncc1Cl (some centres unmarked) [UB-181147]	–
< 0.01 µM	–	> 1 µM	> 1 µM	0.1 to 1 µM	CC(=O)c1ccccc1Nc1nc(Nc2ccc(C3CCN(C(=O)N[C@H]4CC[C@H](NCCOCCC#Cc5ccc6c(c5)CN(C5CCC(=O)NC5=O)C6=O)CC4)CC3)cc2)ncc1Cl (some centres unmarked) [UB-181151]	–
< 0.01 µM	–	0.1 to 1 µM	0.1 to 1 µM	0.1 to 1 µM	NC(=O)c1ccccc1Nc1nc(Nc2ccc(C3CCN(C(=O)NC4CCC(NCCOCCC#Cc5ccc6c(c5)CN(C5CCC(=O)NC5=O)C6=O)CC4)CC3)cc2)ncc1Cl (centres unmarked) [UB-181152]	–
–	–	–	–	–	CC[C@@H]1C(=O)N(C)c2cnc(Nc3ccc(-c4cn([C@H]5CC[C@@H](NCCOCCC#Cc6cccc7c6CN(C6CCC(=O)NC6=O)C7=O)CC5)nn4)cc3)nc2N1C1CCCC1 (some centres unmarked) [UB-181154]	IC50 (MV4;11 cells; MV4;11 cells, read-out: Inhibitory activity IC50 on MV4;11): < 0.01 µM; IC50 (Daudi cells; Daudi cells): 0.1 to 1 µM; IC50 (MDA-MB-231 cells; [5]): 0.1 to 1 µM; IC50 (PC-3; PC-3 cells, read-out: Inhibitory activity IC50 on PC-3): 0.01 to 0.1 µM
< 0.01 µM	0.01 to 0.1 µM	0.01 to 0.1 µM	0.01 to 0.1 µM	–	CC[C@@H]1C(=O)N(C)c2cnc(Nc3ccc(C(=O)N[C@H]4CC[C@@H](NCCOCCC#Cc5cccc6c5CN([C@H]5CCC(=O)NC5=O)C6=O)CC4)cc3)nc2N1C1CCCC1 [UB-181170]	–
0.01 to 0.1 µM	> 1 µM	> 1 µM	> 1 µM	–	CC[C@@H]1C(=O)N(C)c2cnc(Nc3ccc(C(=O)NC4CCN(CCOCCN(C)CC(=O)Nc5cccc6c5CN(C5CCC(=O)NC5=O)C6=O)CC4)nc3)nc2N1C1CCCC1 (some centres unmarked) [UB-181171]	–
< 0.01 µM	0.01 to 0.1 µM	0.01 to 0.1 µM	0.01 to 0.1 µM	–	CC[C@@H]1C(=O)N(C)c2cnc(Nc3ccc(C(=O)N[C@H]4CC[C@@H](N(C)CCOCCC#Cc5cccc6c5CN(C5CCC(=O)NC5=O)C6=O)CC4)cc3)nc2N1C1CCCC1 (some centres unmarked) [UB-181175]	–
< 0.01 µM	0.01 to 0.1 µM	0.01 to 0.1 µM	0.01 to 0.1 µM	–	CC[C@@H]1C(=O)N(C)c2cnc(Nc3ccc(C(=O)N[C@H]4CC[C@H](N(C)CCOCCC#Cc5cccc6c5CN(C5CCC(=O)NC5=O)C6=O)CC4)cc3)nc2N1C1CCCC1 (some centres unmarked) [UB-181176]	–
< 0.01 µM	0.01 to 0.1 µM	< 0.01 µM	< 0.01 µM	–	CC[C@@H]1C(=O)N(C)c2cnc(Nc3ccc(C(=O)N[C@H]4CC[C@@H](N(C)CCOCCC#Cc5cccc6c5CN(C5CCC(=O)NC5=O)C6=O)CC4)cc3OC)nc2N1C1CCCC1 (some centres unmarked) [UB-181177]	–
< 0.01 µM	< 0.01 µM	0.01 to 0.1 µM	0.01 to 0.1 µM	–	CC[C@@H]1C(=O)N(C)c2cnc(Nc3ccc(C(=O)N[C@H]4CC[C@H](N(C)CCOCCC#Cc5cccc6c5CN(C5CCC(=O)NC5=O)C6=O)CC4)cc3OC)nc2N1C1CCCC1 (some centres unmarked) [UB-181178]	–

SMILES	IC50 (MV4;11 cells; [1])	IC50 (Daudi cells; [2])	IC50 (MDA-MB-231 cells; [3])	IC50 (PC-3; [4])	IC50 (NCIH82 cells)	also measured
CC[C@@H]1C(=O)N(C)c2cnc(Nc3ccc(-c4cn([C@H]5CC[C@@H](N(CCOCCC#Cc6cccc7c6CN(C6CCC(=O)NC6=O)C7=O)C(=O)OCc6ccc(NC(=O)[C@H](CC(N)=O)NC(=O)[C@H](C)NC(=O)[C@H](C)NC(=O)CCCCCN7C(=O)C=CC7=O)cc6)CC5)nn4)cc3OC)nc2N1C1CCCC1 (some centres unmarked) [UB-181149]	0.1 to 1 µM	0.1 to 1 µM	0.1 to 1 µM	0.1 to 1 µM	–	–

— patent publication US20230210999A1, “TARGETED PROTEASE DEGRADATION (TED) PLATFORM” (EUBULUS BIOTHERAPEUTICS INC., priority 2020, published 2023)
